Measured values taken from US11932654B2, “Nimbolide analogs as anti-cancer agents and preparation thereof” (priority 2018, dated 2024).

Tests used:
caspase-3 = test: Caspase assay activity, caspase-3, Panc-1 cells; assay type: cell-based; settings: fluorimetric assay, increasing concentrations
Protocol: (§1) Caspase assay activity: Caspase-3, caspase-8 and caspase-9 protease activities were determined using a commercial fluorescence assay kit according to the manufacturer's instructions, Briefly, pancreatic cancer cells were treated with different concentrations of IM-1372-Kn-13 for 24 h were re-suspended in 50 μL of chilled cell lysis buffer; cells were then incubated on ice for 10 min and centrifuged for 1 min in a micro-centrifuge (10,000 g). Then supernatants were transferred (cytosolic extract) to a fresh tube and protein concentration was assayed. Next, diluted 100 μg protein was added to 50 μL cell lysis buffer for each assay. Subsequently, 50 μL of 2× reaction buffer and 5 μL of the 4 mM Ac-DEVD AMC (caspase-3)/Ac-VETD-AMC (caspase-8)/[…] were added and incubated at 37° C. for 2 h (samples read at […] in a microtiter plate reader).

[1] = test system: Pan-02 cells xenograft tumors; test: Histopathological examination of tumors and organs of xenograft mice; assay type: in vivo, nude mice
Protocol: Establishment of Pancreatic cancer xenograft model: To establish tumor in mice, Pan-02 cells (7×10^6) were suspended in 1:1 RPMI medium mixed with matrigel and subcutaneously implanted on right flank of the each mice. The injection sites were examined daily for the appearance of tumors. On 10th day these animals were randomized and divided into 3 groups (6 mice in each group). Group I served as control group received 20% ethanol three times in a week. Test group animals in Group II and III received intratumoral injection of IM-1372-Kn-13 at 10 mg and 25 mg/kg body weight respectively three times in a week. All groups received 5 repeated doses in 12 days. Mice were weighed and tumor volumes were measured 3 times a week by Vernier caliper. Tumor volume in individual mice was calculated by the following formula. 0.5×L (W)^2, Where L is length, W is width of the tumor. The control group animals were euthanized when tumor volume is reached heavier to animal. One-week after completion of treatment period, the animals were sacrificed, and tumors were excised, fixed, and embedded in paraffin. At the end of treatment, blood samples were collected to perform clinical biochemistry.

p53 = test: Western blotting analysis on Panc-1 cell line, p53; assay type: cell-based; settings: panc-1 cells, various concentrations, 24 h, Western blot
Protocol: (§2) Western blotting analysis of IM-1372-Kn-13 on Panc-1 cell line: The cells were lysed in RIPA buffer (50 mM-tris (PH-7.4), 150 Min-Nacl, 1%-NP-40, 0.1%-SDS, 0.5%-Sodium-deoxycholate, 1 mM EDTA, 5 mM NaF, 5 mM Na—O-vandate, 1 mM PMSF, Protease inhibitor cocktail. The lysates were cleared by centrifugation at […] and concentration of protein was estimated by bradford assay. For Western blot analysis, equivalent amount of protein was resolved in SDS-PAGE and then transferred to polyvinylidene difluoride ([…]) membrane. Ti avoid non specific binding of antibodies, the membranes were blocked using 3% BSA in TBS with 0.5% Tween (TBST) for 1 h at room temperature. The membranes were then incubated in primary antibody overnight at 4° C. After removing excess primary antibody bound to membranes, blots were incubated with secondary anti body. Then the signal emitted was captured using chemiluminescence substrate.

p27 = test: Western blotting analysis on Panc-1 cell line, p27; assay type: cell-based; settings: panc-1 cells, various concentrations, 24 h, Western blot
Protocol: as §2

[2] = test system: PC3 prostate cancer cell line; test: In vitro anticancer activity, SRB assay, PC3; assay type: cell-based; settings: 48 h, NA = Not Active
Protocol: Cell culture: Human lung adenocarcinoma cell line (A549 cell line), pancreatic cancer cell line (Panc-1, Pan-02), prostate cancer cell line (DU145, PC3), Brest cancer cell line (MCF-7) was grown in DIEM (Dulbecco's modifications of eagle's medium with L-glutamine & 4.5 g/L glucose) supplemented with fetal bovine serum in a humidified atmosphere of a 5% CO2 at 37° C.
In vitro anticancer activity: Cells were harvested from exponential phase cultures by trypsinization, counted and plated in 96-well plate. Optimal seeding densities for different cell lines in each plate were 5000 cells per well. After 24 h cells were treated with \ the newly synthesized compound at a dose range of 0.1-100 μm final concentration. Thereafter, cells were allowed to grow for 48 h before determination of cell survival by the SRB assay. Then the cells were fixed with 10% cold trichloroacetic acid for 1 h at 4° C. After two washes with deionized water, fixed cells were stained with 50 μL of SRB solution (1% in acetic acid) for 30 min and subsequently washed twice with 1% acetic acid to remove unbound stain. The plates were left to dry at room temperature and bound stain was solubilized with 100 μL of 10 mM buffered Tris base for reading the […] at 540 nm.

[3] = Biochemical analysis in acute toxicity studies; assay type: in vivo, mice
Protocol: Biochemical analysis: In acute toxicity experiment, blood samples were collected from all the animals 1 week after the last dose and mice were sacrificed by cervical decapitation. The obtained serum was analyzed in clinical chemistry for the assessment of liver function tests (LFT), activity of serum alkaline phosphatase (ALP), alanine aminotransferase (ALT), aspartate aminotransferase (AST), kidney function tests (RFT) (serum urea and creatinine). The same tests were performed for serum samples collected from three groups of tumor xenograft mice used for determining in vivo activity of test compound against pancreatic cancer. The measurement of these biochemical parameters was done in Clinical Biochemical analyzer (Tulip coralab 3000™).

caspase-9 = test: Caspase assay activity, caspase-9, Panc-1 cells; assay type: cell-based; settings: fluorimetric assay, increasing concentrations
Protocol: as §1

[4] = single IP dose 5 mg/kg body weight
[5] = single IP dose 10 mg/kg body weight
[6] = single IP dose 25 mg/kg body weight
[7] = single IP dose 50 mg/kg body weight

COC(=O)C[C@H]1[C@]2(C)C3=C(C)[C@H](C4=CC5OC4C(C(=O)OC)=C5C(=O)OC)C[C@@H]3O[C@@H]2[C@@H]2OC(=O)[C@]3(C)C=CC(=O)[C@@]1(C)C23 (stereo partly drawn) [A4]
activity of caspase-3 (caspase-3): increased significantly in a dose-dependent manner | animals showing liver metastasis ([1]; printed 'group I' (control group: 50%)): 10 % of animals | metastatic invasion in liver, kidney and spleen ([1]; printed 'group II'): no metastatic invasion was found | liver metastasis in treated animals ([1]; treated xenograft animals vs control group): no liver metastasis | effect on the other tissues of xenograft mice ([1]; xenograft mice, intratumoral): did not show any effect | expression of p53 protein (p53): reduced | expression of p27 protein (p27): reduced | IC50 [2]: 1.4 µM | ALT [3, 4]: 48 U/L | AST [3, 4]: 63 U/L | BUN [3, 4]: 18 mg/dL | Cholesterol [3, 4]: 175 mg/dL | Creatinine [3, 4]: 0.4 mg/dL | Glucose [3, 4]: 101 mg/dL | ALT [3, 5]: 66 U/L | AST [3, 5]: 66 U/L | BUN [3, 5]: 21 mg/dL | Cholesterol [3, 5]: 175 mg/dL | Creatinine [3, 5]: 0.4 mg/dL | Glucose [3, 5]: 100 mg/dL | ALT [3, 6]: 67 U/L | AST [3, 6]: 74.5 U/L | BUN [3, 6]: 24.5 mg/dL | Cholesterol [3, 6]: 163.5 mg/dL | Creatinine [3, 6]: 0.35 mg/dL | Glucose [3, 6]: 96 mg/dL | ALT [3, 7]: 95 U/L | AST [3, 7]: 128 U/L | BUN [3, 7]: 29 mg/dL | Cholesterol [3, 7]: 178 mg/dL | Creatinine [3, 7]: 0.9 mg/dL | Glucose [3, 7]: 102 mg/dL | activity of caspase-9 (caspase-9): increased significantly in a dose-dependent manner
